Experiments:
Assay in all cases: relative viability (nuclei count vs DMSO), 5 days (fraction); higher = more cells survive
[1] = compound: CC1=C(C=CC(=C1)[N+](=O)[O-])NS(=O)(=O)C2=C(C=CC(=C2)Cl)Cl [FH535] + COc1cc2c(Oc3ccc(NC(=O)C4(C(=O)Nc5ccc(F)cc5)CC4)cc3F)ccnc2cc1OCCCN1CCOCC1 [Foretinib] (partner 0.25 µM)
Summary of the method: (§1)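 Lung cancer cell lines were pin-tool dosed in 1536-well plates on the day after seeding, with either a lone drug or a fixed anchor-drug dose plus five library-drug doses (not always all listed) in √10 steps. Nuclei were counted on 4× images after 5 days. Relative viability is the ratio of treated-well to vehicle-well nuclei counts, with each value a median of duplicate plates.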

[2] = compound: CC1=C(C=CC(=C1)[N+](=O)[O-])NS(=O)(=O)C2=C(C=CC(=C2)Cl)Cl [FH535] + CC1(C)CCC(c2ccc(Cl)cc2)=C(CN2CCN(c3ccc(C(=O)NS(=O)(=O)c4ccc(N[C@H](CCN5CCOCC5)CSc5ccccc5)c(S(=O)(=O)C(F)(F)F)c4)cc3)CC2)C1 [Navitoclax] (partner 0.5 µM)
Summary of the method: as §1

[3] = compound: CC1=C(C=CC(=C1)[N+](=O)[O-])NS(=O)(=O)C2=C(C=CC(=C2)Cl)Cl [FH535] + Nc1nc2[nH]cc(CCc3ccc(C(=O)N[C@@H](CCC(=O)O)C(=O)O)cc3)c2c(=O)[nH]1 [Pemetrexed] (partner 0.2 µM)
Summary of the method: as §1

[4] = compound: CC1=C(C=CC(=C1)[N+](=O)[O-])NS(=O)(=O)C2=C(C=CC(=C2)Cl)Cl [FH535] + COc1cccc2cc(-c3nc([C@H]4CC[C@H](C(=O)O)CC4)n4ncnc(N)c34)[nH]c12 [OSI-027] (partner 0.5 µM)
Summary of the method: as §1

[5] = compound: CC1=C(C=CC(=C1)[N+](=O)[O-])NS(=O)(=O)C2=C(C=CC(=C2)Cl)Cl [FH535] + Cc1cc(Nc2cc(N3CCN(C)CC3)nc(Sc3ccc(NC(=O)C4CC4)cc3)n2)n[nH]1 [Tozasertib] (partner 0.1 µM)
Summary of the method: as §1

Cell Line | relative viability ([1]; first compound 0.04 µM) | relative viability ([1]; first compound 0.1265 µM) | relative viability ([1]; first compound 0.4 µM) | relative viability ([1]; first compound 1.265 µM) | relative viability ([2]; first compound 0.1265 µM) | relative viability ([2]; first compound 0.4 µM) | relative viability ([2]; first compound 1.265 µM) | relative viability ([3]; first compound 0.04 µM) | relative viability ([3]; first compound 0.1265 µM) | relative viability ([3]; first compound 0.4 µM) | relative viability ([3]; first compound 1.265 µM) | relative viability ([4]; first compound 0.04 µM) | relative viability ([4]; first compound 0.1265 µM) | relative viability ([4]; first compound 0.4 µM) | relative viability ([4]; first compound 1.265 µM) | relative viability ([5]; first compound 0.04 µM) | relative viability ([5]; first compound 0.1265 µM) | relative viability ([5]; first compound 0.4 µM) | relative viability ([5]; first compound 1.265 µM) | relative viability ([2]; first compound 0.04 µM)
LCLC-97TM1 | 0.854 | 0.949 | 1.03 | 0.679 | 0.446 | 0.392 | 0.304 | 0.155 | 0.173 | 0.156 | 0.135 | 0.431 | 0.49 | 0.441 | 0.395 | 0.229 | 0.284 | 0.282 | 0.161 | 
LK-2 | 1.23 | 1.33 | 1.39 | 1.11 | 0.855 | 1 | 1.06 | 0.271 | 0.288 | 0.278 | 0.307 | 0.181 | 0.208 | 0.2 | 0.155 | 0.166 | 0.172 | 0.169 | 0.201 | 0.788
LOU-NH91 | 0.99 | 0.952 | 0.91 | 0.474 | 0.736 | 0.695 | 0.233 | 0.377 | 0.428 | 0.429 | 0.457 | 0.708 | 0.815 | 0.557 | 0.397 | 0.634 | 0.68 | 0.633 | 0.33 | 0.602
LU99A | 0.706 | 0.865 | 0.736 | 0.761 | 0.667 | 0.844 | 0.844 | 0.148 | 0.171 | 0.199 | 0.239 | 0.241 | 0.304 | 0.284 | 0.279 | 0.297 | 0.281 | 0.329 | 0.273 | 0.716
LXF-289 | 0.975 | 0.983 | 0.862 | 0.684 | 0.936 | 0.945 | 0.645 | 0.775 | 0.948 | 0.95 | 0.751 | 0.735 | 0.809 | 0.688 | 0.69 | 0.191 | 0.172 | 0.166 | 0.136 | 0.996
NCI-H23 | 0.469 | 1.07 | 0.953 | 0.636 | 0.821 | 0.818 | 0.703 | 0.517 | 0.782 | 0.625 | 0.436 | 0.408 | 0.471 | 0.642 | 0.546 | 0.281 | 0.344 | 0.466 | 0.301 | 
NCI-H322M | 0.966 | 1 | 0.961 | 0.882 | 1.39 | 1.19 | 1.2 | 0.559 | 0.67 | 0.633 | 0.587 | 0.543 | 0.54 | 0.577 | 0.394 | 0.493 | 0.514 | 0.475 | 0.468 | 1.13
NCI-H441 | 0.959 | 0.97 | 1.08 | 0.801 | 0.773 | 0.502 | 0.365 | 0.232 | 0.254 | 0.231 | 0.257 | 0.529 | 0.559 | 0.508 | 0.527 | 0.614 | 0.755 | 0.581 | 0.564 | 0.669
NCI-H460 | 1.05 | 1.05 | 0.937 | 0.654 | 1.25 | 1.11 | 0.696 | 0.0603 | 0.0608 | 0.0625 | 0.0646 | 0.612 | 0.754 | 0.542 | 0.375 | 0.219 | 0.5 | 0.382 | 0.21 | 1.15
NCI-H520 | 0.684 | 0.781 | 0.574 | 0.875 | 1.09 | 1.06 | 0.882 | 0.737 | 0.818 | 0.585 | 0.659 | 0.199 | 0.286 | 0.296 | 0.192 | 0.375 | 0.44 | 0.393 | 0.401 | 1.11
NCI-H596 | 0.833 | 0.899 | 0.852 | 0.819 | 0.967 | 1.05 | 0.874 | 0.499 | 0.507 | 0.454 | 0.507 | 0.697 | 0.551 | 0.55 | 0.652 | 0.947 | 0.992 | 0.931 | 0.696 | 0.856
NCI-H647 | 1.14 | 1.22 | 1.13 | 1.14 | 1.2 | 1.1 | 0.919 | 0.2 | 0.219 | 0.187 | 0.152 | 0.486 | 0.809 | 0.673 | 0.543 | 0.314 | 0.145 | 0.176 | 0.42 | 1.06
NCI-H838 | 1.03 | 1.11 | 0.933 | 0.823 | 1.24 | 1.07 | 0.969 | 0.249 | 0.233 | 0.216 | 0.204 | 0.388 | 0.423 | 0.388 | 0.328 | 0.286 | 0.246 | 0.272 | 0.19 | 1.16
NCI-H1355 | 1.03 | 1 | 0.904 | 0.582 | 0.998 | 0.88 | 0.66 | 1.03 | 1.05 | 0.984 | 0.91 | 0.366 | 0.466 | 0.349 | 0.303 | 0.507 | 0.584 | 0.557 | 0.399 | 0.862
NCI-H1395 | 0.952 | 0.967 | 0.868 | 0.831 | 1.23 | 1.06 | 0.895 | 0.768 | 0.854 | 0.829 | 0.773 | 0.581 | 0.613 | 0.61 | 0.476 | 0.68 | 0.872 | 0.774 | 0.678 | 1
NCI-H1437 | 1.27 | 1.21 | 0.924 | 0.425 | 1.06 | 0.867 | 0.461 | 0.297 | 0.328 | 0.284 | 0.2 | 0.862 | 0.851 | 0.647 | 0.434 | 0.425 | 0.404 | 0.358 | 0.22 | 1.07
NCI-H1650 | 0.966 | 1.28 | 1.01 | 0.825 | 1.27 | 1.17 | 0.856 | 0.408 | 0.371 | 0.355 | 0.306 | 0.558 | 0.591 | 0.456 | 0.523 | 0.369 | 0.425 | 0.513 | 0.343 | 1.17
NCI-H1651 | 0.888 | 0.856 | 0.697 | 0.584 | 1.2 | 1.05 | 0.864 | 0.568 | 0.595 | 0.551 | 0.553 | 0.675 | 0.695 | 0.618 | 0.507 | 0.753 | 0.639 | 0.633 | 0.64 | 1.15
NCI-H1666 | 0.919 | 0.975 | 0.913 | 0.8 | 0.956 | 1.07 | 0.693 | 0.838 | 0.834 | 0.948 | 0.794 | 0.866 | 0.843 | 0.777 | 0.705 | 0.6 | 0.544 | 0.631 | 0.545 | 0.934
NCI-H1734 |  | 0.91 | 0.886 | 0.773 | 0.902 | 0.86 | 0.735 | 0.45 | 0.434 | 0.415 | 0.388 |  | 0.633 | 0.55 | 0.503 |  | 0.26 | 0.263 | 0.297 | 0.802
NCI-H1755 | 0.862 | 0.894 | 0.874 | 0.854 | 0.997 | 1.01 | 0.79 | 0.406 | 0.42 | 0.342 | 0.413 | 0.552 | 0.675 | 0.683 | 0.629 | 0.569 | 0.533 | 0.515 | 0.525 | 0.996
NCI-H1793 | 0.347 | 0.775 | 0.798 | 0.458 | 0.573 | 0.469 | 0.325 | 0.655 | 0.932 | 0.66 | 0.584 | 0.295 | 0.225 | 0.306 | 0.244 | 0.305 | 0.297 | 0.353 | 0.213 | 0.49
NCI-H1915 | 1.11 | 1.08 | 1.01 | 0.738 | 0.822 | 0.777 | 0.69 | 0.472 | 0.522 | 0.498 | 0.487 | 0.542 | 0.683 | 0.552 | 0.525 | 0.38 | 0.418 | 0.429 | 0.356 | 0.745
NCI-H1944 | 0.855 | 0.922 | 0.882 | 0.857 | 1.01 | 0.975 | 0.924 | 0.53 | 0.621 | 0.505 | 0.515 | 0.35 | 0.449 | 0.364 | 0.365 | 0.237 | 0.265 | 0.234 | 0.236 | 
NCI-H1975 | 0.889 | 0.973 | 0.936 | 0.789 | 1.32 | 0.91 | 0.934 | 0.286 | 0.309 | 0.277 | 0.275 | 0.721 | 0.705 | 0.584 | 0.534 | 0.654 | 0.726 | 0.602 | 0.635 | 1.16
NCI-H1993 | 0.76 | 0.753 | 0.741 | 0.575 | 1.01 | 0.838 | 0.695 | 0.539 | 0.611 | 0.523 | 0.463 | 0.556 | 0.522 | 0.531 | 0.617 | 0.53 | 0.596 | 0.551 | 0.472 | 0.946
NCI-H2009 | 1.27 | 1.22 | 1.18 | 0.929 | 1.13 | 1.09 | 0.847 | 1 | 1 | 0.955 | 0.836 | 0.58 | 0.627 | 0.566 | 0.486 | 0.777 | 0.806 | 0.747 | 0.631 | 1.11

— the supplement of paper PMC10307832
